Reference: article PMC2694832, “Pharmacokinetics, tissue distribution and mass balance of radiolabeled dihydroartemisinin in male rats” (Malaria Journal, 2009)
Several values for one entry are separate records, joined by “and”; a condition that tells them apart may be missing. Equal entries are not always repeated.

Tests used:
[1] = Mass balance and urinary/faecal elimination of [^14C] DHA; type: in vivo, rats; details: rats i.v. 3 mg/kg
Description: Metabolic cages were washed with a solution of 2% Count-off® (Perkin-Elmer Life and Analytical Sciences, Boston, Massachusetts, USA) and the volume was measured. Duplicate portions (0.1 ml urine; 1 ml cage rinse) of each sample were radio-assayed after the addition of scintillation cocktail. The weights of individual faecal samples were obtained and the samples were subsequently homogenized in four volumes of de-ionized water. Quadruplicate portions (1.0 ml) of each homogenate were decolourized with 30% hydrogen peroxide, and digested with Solvable® tissue solubilizer. After acidification with glacial acetic acid and addition of scintillation cocktail, samples were assayed for radioactivity. The samples were kept in at -20°C for two weeks prior to analysis.

rat plasma proteins = assay: Protein binding of [^14C] DHA, equilibrium dialysis, rat plasma; type: in vitro ADME; details: undiluted rat plasma, 0.15 to 57800 ng/ml, 37°C, five hours
Description: (§1) Human blood samples (five men and five women) were freshly obtained from subject volunteers at the Department of Clinical Trials, WRAIR. Rat samples were freshly collected from five male and five female rats. Equilibrium dialysis was performed using Teflon dialysis chambers and Diachema standard membranes as described by Li and Hümpel. The GD-4/90 Equilibrium Dialyzer (MM Developments, Ottawa) contained 20 micro-dialysis cells (2.0 ml/chamber). The molecular weight cutoff for dialysis membranes was 5000 D. Equilibrium was reached after four hours, when cells were rotated at 16 rpm and 37°C. Drugs were dissolved in plasma samples with various concentrations (0.15 – 57800 ng/ml) and all experiments were carried out for five hours.

human plasma proteins = assay: Protein binding of [^14C] DHA, equilibrium dialysis, human plasma; type: in vitro ADME
Description: as §1

[2] = Feces, listed as [^14C] dihydroartemisinin, 3 mg/kg
[3] = Total, through 192 hours, 3 mg/kg
[4] = Total, through 192 hours, listed as [^14C] dihydroartemisinin, 3 mg/kg
[5] = Urine, listed as [^14C] dihydroartemisinin, 3 mg/kg

Fecal excretion of total radiolabel (Feces) ([1]; 0.04–0.33 days): 1.52 ± 0.58 % of dose
Fecal excretion of total radiolabel (Feces) ([1]; 0.33–1.0 days): 29.56 ± 11.75 % of dose
Fecal excretion of total radiolabel (Feces) ([1]; 1–2 days): 6.14 ± 1.71 % of dose
Fecal excretion of total radiolabel (Feces) ([1]; 2–3 days): 1.64 ± 0.78 % of dose
Fecal excretion of total radiolabel (Feces) ([1]; 3–4 days): 0.78 ± 0.31 % of dose
Fecal excretion of total radiolabel (Feces) ([1]; 4–5 days): 0.46 ± 0.09 % of dose
Fecal excretion of total radiolabel (Feces) ([1]; 5–6 days): 0.15 ± 0.06 % of dose
Fecal excretion of total radiolabel (Feces) ([1]; 6–7 days): 0.11 ± 0.05 % of dose
Fecal excretion of total radiolabel (Feces) ([1]; 7–8 days): 0.04 ± 0.04 % of dose
Peak height ([1]; Feces, 3 mg/kg): 292.39 μg/rat
Peak time ([1]; Feces, 3 mg/kg): 0.67 days
Peak height [1, 2]: 292.39 ± 150.29 μg/rat
Peak time [1, 2]: 0.67 ± 0.09 days
Fecal excretion of total radiolabel (Feces) [1, 3]: ~40.39 % of dose and ~40 % of dose
Total radiolabel in Cage wash [1, 3]: ~1.88 % of dose
Fecal excretion of total radiolabel (Feces) [1, 4]: 40.39 ± 13.22 % of dose
Total radiolabel in Cage wash [1, 4]: 1.88 ± 2.27 % of dose
Peak time ([1]; Urine, 3 mg/kg): 0.37 days
Peak height [1, 5]: 234.48 ± 33.74 μg/rat
Peak time [1, 5]: 0.37 ± 0.06 days
lag time of elimination ([1]; faeces): 0.31 days
Ratio of excretion (urine/feces) [1]: 1.37 ± 0.39
faecal excretion, range among animals ([1]; through 192 hours): 27–53 % of the administered dose
urinary excretion, range among animals ([1]; through 192 hours): 44–61 % of the administered dose
total dose excreted within first 24 hours ([1]; urine and faeces): greater than 74.76%
lag time of elimination ([1]; urine): < 0.02 days
plasma protein binding percentage (rat plasma proteins): 76–82%
maximum binding percentage (human plasma proteins; human plasma, concentration range 0.15 – 462 ng/ml): 82%
binding percentage declined to, at higher concentrations (human plasma proteins; human plasma, higher concentrations (> 25 ng/ml)): 66%
plasma protein binding percentage (human plasma proteins; undiluted human plasma, 0.15 to 57800 ng/ml, 37°C, five hours): 76–82%
Compound: C[C@@H]1CC[C@H]2[C@@H]([14CH3])C(O)O[C@@H]3O[C@@]4(C)CC[C@@H]1[C@]32OO4 (stereo partly drawn) [[^14C] DHA, [16-^14C] DHA]
